According to PubChem BioAssay (NCI):
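Test compounds were applied to cells in 96-well plates for 48 hours at 5 doses. GI50 is the concentration that inhibits growth by half. TGI marks complete inhibition of growth.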

Assays:
Assay in all cases: NCI tumour cell line growth inhibition, 48 h
U251 CNS = system: U251 CNS
SNB-19 CNS = system: SNB-19 CNS
RXF 393 renal = system: RXF 393 renal
COLO 205 colon = system: COLO 205 colon
HCT-116 colon = system: HCT-116 colon
OVCAR-5 ovarian = system: OVCAR-5 ovarian
CAKI-1 renal = system: CAKI-1 renal
LOX IMVI melanoma = system: LOX IMVI melanoma
DLD-1 colon = system: DLD-1 colon
HOP-62 NSCLC = system: HOP-62 NSCLC
K-562 leukemia = system: K-562 leukemia
MALME-3M melanoma = system: MALME-3M melanoma
HL-60(TB) leukemia = system: HL-60(TB) leukemia
ACHN renal = system: ACHN renal
A498 renal = system: A498 renal
KM12 colon = system: KM12 colon
HOP-18 NSCLC = system: HOP-18 NSCLC
SF-295 CNS = system: SF-295 CNS
SF-539 CNS = system: SF-539 CNS
NCI-H460 lung = system: NCI-H460 lung
SK-MEL-28 melanoma = system: SK-MEL-28 melanoma
SF-268 CNS = system: SF-268 CNS
SNB-75 CNS = system: SNB-75 CNS
786-0 renal = system: 786-0 renal
SK-MEL-2 melanoma = system: SK-MEL-2 melanoma
RPMI-8226 leukemia = system: RPMI-8226 leukemia
UO-31 renal = system: UO-31 renal
CCRF-CEM leukemia = system: CCRF-CEM leukemia
SR leukemia = system: SR leukemia
OVCAR-8 ovarian = system: OVCAR-8 ovarian
IGROV1 ovarian = system: IGROV1 ovarian
UACC-62 melanoma = system: UACC-62 melanoma
EKVX NSCLC = system: EKVX NSCLC
HCC-2998 colon = system: HCC-2998 colon
UACC-257 melanoma = system: UACC-257 melanoma
KM20L2 colon = system: KM20L2 colon
SW-620 colon = system: SW-620 colon
SK-OV-3 ovarian = system: SK-OV-3 ovarian
NCI-H226 lung = system: NCI-H226 lung
SN12C renal = system: SN12C renal
NCI-H522 lung = system: NCI-H522 lung
OVCAR-3 ovarian = system: OVCAR-3 ovarian
HT29 colon = system: HT29 colon
HOP-92 NSCLC = system: HOP-92 NSCLC
DMS 273 small cell lung = system: DMS 273 small cell lung
SNB-78 CNS = system: SNB-78 CNS
SK-MEL-5 melanoma = system: SK-MEL-5 melanoma
A549 NSCLC = system: A549 NSCLC
HCT-15 colon = system: HCT-15 colon
TK-10 renal = system: TK-10 renal
OVCAR-4 ovarian = system: OVCAR-4 ovarian
M14 melanoma = system: M14 melanoma
LXFL 529 NSCLC = system: LXFL 529 NSCLC

N.N.NCCCCCN.O=C([O-])CCl.O=C([O-])CCl.O=C([O-])CCl.O=C([O-])CCl.[Pt+4].[Pt+4]
GI50 (U251 CNS): 5.06 µM | TGI (U251 CNS): 40.6 µM | GI50 (SNB-19 CNS): 1.94 µM | TGI (SNB-19 CNS): 17.2 µM | GI50 (RXF 393 renal): 2.87 µM | TGI (RXF 393 renal): 21.1 µM | GI50 (COLO 205 colon): 1.78 µM | TGI (COLO 205 colon): 8.45 µM | GI50 (HCT-116 colon): 10.8 µM | TGI (HCT-116 colon): > 100 µM | GI50 (OVCAR-5 ovarian): 5.54 µM | TGI (OVCAR-5 ovarian): 48.9 µM | GI50 (CAKI-1 renal): 1.2 µM | TGI (CAKI-1 renal): 7.55 µM | GI50 (LOX IMVI melanoma): 5.93 µM | TGI (LOX IMVI melanoma): > 100 µM | GI50 (DLD-1 colon): 19 µM | TGI (DLD-1 colon): > 100 µM | GI50 (HOP-62 NSCLC): 1.36 µM | TGI (HOP-62 NSCLC): 12.5 µM | GI50 (K-562 leukemia): 37.2 µM | TGI (K-562 leukemia): > 100 µM | GI50 (MALME-3M melanoma): 11.9 µM | TGI (MALME-3M melanoma): 39.2 µM | GI50 (HL-60(TB) leukemia): 1.43 µM | TGI (HL-60(TB) leukemia): 11.2 µM | GI50 (ACHN renal): 3.39 µM | TGI (ACHN renal): 29.9 µM | GI50 (A498 renal): 11 µM | TGI (A498 renal): 31.2 µM | GI50 (KM12 colon): 20.9 µM | TGI (KM12 colon): > 100 µM | GI50 (HOP-18 NSCLC): 6.51 µM | TGI (HOP-18 NSCLC): > 100 µM | GI50 (SF-295 CNS): 1.84 µM | TGI (SF-295 CNS): 86 µM | GI50 (SF-539 CNS): 3.08 µM | TGI (SF-539 CNS): 19.8 µM | GI50 (NCI-H460 lung): 0.316 µM | TGI (NCI-H460 lung): 18.6 µM | GI50 (SK-MEL-28 melanoma): 23.2 µM | TGI (SK-MEL-28 melanoma): 73.8 µM | GI50 (SF-268 CNS): 2.13 µM | TGI (SF-268 CNS): 36.8 µM | GI50 (SNB-75 CNS): 0.996 µM | TGI (SNB-75 CNS): 11.8 µM | GI50 (786-0 renal): 3.36 µM | TGI (786-0 renal): 24.4 µM | GI50 (SK-MEL-2 melanoma): 35.8 µM | TGI (SK-MEL-2 melanoma): > 100 µM | GI50 (RPMI-8226 leukemia): 44.9 µM | TGI (RPMI-8226 leukemia): > 100 µM | GI50 (UO-31 renal): 4.23 µM | TGI (UO-31 renal): 17.9 µM | GI50 (CCRF-CEM leukemia): 1.71 µM | TGI (CCRF-CEM leukemia): > 100 µM | GI50 (SR leukemia): 1.73 µM | TGI (SR leukemia): 16.8 µM | GI50 (OVCAR-8 ovarian): 14 µM | TGI (OVCAR-8 ovarian): > 100 µM | GI50 (IGROV1 ovarian): 18 µM | TGI (IGROV1 ovarian): 67.3 µM | GI50 (UACC-62 melanoma): 0.406 µM | TGI (UACC-62 melanoma): 53.9 µM | GI50 (EKVX NSCLC): 17 µM | TGI (EKVX NSCLC): 58.2 µM | GI50 (HCC-2998 colon): 11.6 µM | TGI (HCC-2998 colon): 28 µM | GI50 (UACC-257 melanoma): 9.12 µM | TGI (UACC-257 melanoma): 94.6 µM | GI50 (KM20L2 colon): 11.7 µM | TGI (KM20L2 colon): 32 µM | GI50 (SW-620 colon): 4.58 µM | TGI (SW-620 colon): > 100 µM | GI50 (SK-OV-3 ovarian): 8.01 µM | TGI (SK-OV-3 ovarian): 48.1 µM | GI50 (NCI-H226 lung): 0.857 µM | TGI (NCI-H226 lung): 3.9 µM | GI50 (SN12C renal): 0.161 µM | TGI (SN12C renal): 1.69 µM | GI50 (NCI-H522 lung): 3.3 µM | TGI (NCI-H522 lung): 73.8 µM | GI50 (OVCAR-3 ovarian): 17 µM | TGI (OVCAR-3 ovarian): 49.2 µM | GI50 (HT29 colon): 9.87 µM | TGI (HT29 colon): 42.4 µM | GI50 (HOP-92 NSCLC): 23.7 µM | TGI (HOP-92 NSCLC): 51.6 µM | GI50 (DMS 273 small cell lung): 1.29 µM | TGI (DMS 273 small cell lung): > 100 µM | GI50 (SNB-78 CNS): 24 µM | TGI (SNB-78 CNS): > 100 µM | GI50 (SK-MEL-5 melanoma): 4.68 µM | TGI (SK-MEL-5 melanoma): 18.3 µM | GI50 (A549 NSCLC): 3.03 µM | TGI (A549 NSCLC): 30 µM | GI50 (HCT-15 colon): 31.8 µM | TGI (HCT-15 colon): > 100 µM | GI50 (TK-10 renal): 26.4 µM | TGI (TK-10 renal): > 100 µM | GI50 (OVCAR-4 ovarian): 10.2 µM | TGI (OVCAR-4 ovarian): 48.3 µM | GI50 (M14 melanoma): 9.28 µM | TGI (M14 melanoma): 33.5 µM | GI50 (LXFL 529 NSCLC): 17.3 µM | TGI (LXFL 529 NSCLC): 91.2 µM
